Target: T1, VEGFR-3 (vascular endothelial growth factor receptor-3, Flt-4) (Homo sapiens, UniProt P35916)
T1 construct: gene FLT4
Test: cell-free kinase (autophosphorylation) assay; also HUVEC cellular VEGFR-3 phosphorylation, IC50 […]
Type: biochemical

T1 sequence (P35916 25-1363): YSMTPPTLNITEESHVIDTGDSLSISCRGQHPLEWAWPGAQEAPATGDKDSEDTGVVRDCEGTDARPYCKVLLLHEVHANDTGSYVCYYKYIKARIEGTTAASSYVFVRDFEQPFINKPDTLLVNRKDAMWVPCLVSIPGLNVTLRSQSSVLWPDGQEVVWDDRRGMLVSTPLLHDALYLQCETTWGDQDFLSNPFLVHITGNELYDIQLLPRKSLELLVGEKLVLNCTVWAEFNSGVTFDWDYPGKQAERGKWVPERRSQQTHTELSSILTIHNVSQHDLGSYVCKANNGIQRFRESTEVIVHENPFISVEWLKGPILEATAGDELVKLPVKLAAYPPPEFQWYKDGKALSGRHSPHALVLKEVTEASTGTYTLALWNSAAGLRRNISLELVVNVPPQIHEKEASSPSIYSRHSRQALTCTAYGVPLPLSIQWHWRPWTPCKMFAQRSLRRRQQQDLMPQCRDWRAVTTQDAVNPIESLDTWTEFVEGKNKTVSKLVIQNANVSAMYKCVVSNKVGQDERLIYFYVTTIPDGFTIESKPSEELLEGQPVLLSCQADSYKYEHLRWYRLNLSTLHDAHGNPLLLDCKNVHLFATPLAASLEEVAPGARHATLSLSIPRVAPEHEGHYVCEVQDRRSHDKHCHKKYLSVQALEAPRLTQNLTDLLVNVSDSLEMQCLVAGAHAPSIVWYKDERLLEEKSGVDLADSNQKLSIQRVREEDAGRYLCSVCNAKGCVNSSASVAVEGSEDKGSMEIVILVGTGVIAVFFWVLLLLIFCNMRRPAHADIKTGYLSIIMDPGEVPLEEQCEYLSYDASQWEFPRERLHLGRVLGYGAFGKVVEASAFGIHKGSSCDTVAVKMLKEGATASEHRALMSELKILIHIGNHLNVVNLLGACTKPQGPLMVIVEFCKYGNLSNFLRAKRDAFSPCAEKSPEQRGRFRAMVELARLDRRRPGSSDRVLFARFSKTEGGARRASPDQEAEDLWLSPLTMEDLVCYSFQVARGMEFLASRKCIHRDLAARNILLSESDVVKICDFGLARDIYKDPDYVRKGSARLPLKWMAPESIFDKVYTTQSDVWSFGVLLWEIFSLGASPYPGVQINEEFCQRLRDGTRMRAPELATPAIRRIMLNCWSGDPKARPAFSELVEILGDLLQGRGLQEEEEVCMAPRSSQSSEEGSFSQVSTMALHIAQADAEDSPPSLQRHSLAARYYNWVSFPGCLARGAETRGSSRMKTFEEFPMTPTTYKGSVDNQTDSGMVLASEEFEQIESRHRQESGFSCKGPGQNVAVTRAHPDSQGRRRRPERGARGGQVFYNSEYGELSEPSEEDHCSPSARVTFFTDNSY

COc1cc2c(Oc3ccc(Nc4ccc(C(C)(C)C)cc4)cc3)ccnc2cc1OCCNCCO [Ki23057]
IC50: 4.3 nM

— publication PMC2768106, “Effects of VEGFR-3 phosphorylation inhibitor on lymph node metastasis in an orthotopic diffuse-type gastric carcinoma model” (British Journal of Cancer, 2009)
